Consider three compounds from US20210220420A1, “BOTANICAL COMPOSITIONS OF SALVIA O[…] ACTIVITY IN EXTENDING CHR[…] AND METHODS OF USE” (priority 2016, published 2021).

Test [1] deals with C. elegans strain with a pharyngeal GFP tag and a bus-5 mutation. Put plainly: C. elegans chronological lifespan assay versus small molecule AChE inhibitors (Example 4). Type of test: in vivo. To be noted: 10 mg/ml; for maximum improvement in survival: at day 13 (N350), day 12 (N355, N314), day 9 (N354); for improvement in mean life span: vs control. The method, then:
The samples were prepared as a DMSO-based 10 mg/ml stock, aliquoted when necessary and a serial dilution of the stock solution was performed for N92-4. The stock solutions were stored at −20° C.
The assay was carried out using the standard C. elegans strain with a pharyngeal GFP tag and a bus-5 mutation. The GFP tag enables images of the worms to be captured using fluorescence microscopy. […] The worms were raised in the presence of a treatment or control on 12 well NGM agar plates, and were maintained at 20° C. with sufficient food (Escherichia coli strain OP-50).
A proprietary data analysis software package was used to analyse the effects of different active ingredients on aspects of worm ageing. The package was developed using a MATLAB image analysis algorithm which was adapted to recognise and count worms based on their fluorescence intensity above background fluorescence. A living worm is distinguished from a dead worm based on the degree of movement between two consecutive images, which enables the number of living and cumulative number of dead worms to be tracked throughout the experiment. […] A selection of images was manually checked to ensure the software had correctly identified the number of worms.
The statistical analysis output of OASIS provides Log-Rank and Fishers Exact Test results. The Log-Rank result is a non-parametric test which compares two survival functions for the overall lifespan assay, providing a reliable p-value summarising the whole experiment. The Fishers Exact Test calculates the significance of survival function comparisons at multiple specific time points throughout the experiment, rather than for the overall lifespan

A further test relates to Yeast. The settings on record: cited from earlier work.

On to `CCN(C)C(=O)Oc1cccc([C@H](C)N(C)C)c1` [N355, Rivastigmine], for which, in test [1], the Restricted mean lifespan amounted to 14.04 days, the “maximum improvement in lifespan” value is listed as “+15.6%”, the “maximum improvement in survival” value is recorded as “up to +13.3%” and the “improvement in mean life span” value is on record as “+7.9%”.

`COc1ccc2c3c1O[C@H]1C[C@@H](O)C=C[C@@]31CCN(C)C2` [N354, Galantamine]: in test [1], the Restricted mean lifespan was determined as 14.05 days, the “maximum improvement in lifespan” value is on record as “+15.9%”, the “maximum improvement in survival” value is recorded as “up to +11.6%” and the “improvement in mean life span” value was “+8%”.

Turning to `Oc1ccc(C=Cc2cc(O)cc(O)c2)cc1` [Resveratrol], the effect on lifespan entry in the test on Yeast was “able to increase lifespan in yeast”.
